According to paper PMC7248905, “Development of UHPLC-MS/MS Method for Indirubin-3′-Oxime Derivative as a Novel FLT3 Inhibitor and Pharmacokinetic Study in Rats” (Molecules, 2020):
Like-named read-outs stand apart in the source and are kept apart here.

Assays:
[1] = Pharmacokinetic study in rats after intravenous and oral administration; assay type: in vivo, Sprague Dawley rats; parameters: AUC/Dose: unit not given here; conditions: rat; for AUC(0-t) / clearance / MRT / half-life / Vd / Cmax / bioavailability: male, Sprague Dawley, plasma; for clearance: read-out: CL (time averaged total body clearance); for MRT: read-out: MRT (mean residence time) (converted); for Vd: read-out: Vd,ss (apparent volume of distribution at steady state); for Cmax: read-out: Cmax (maximum plasma concentration)
Excerpt: The validated LC-MS/MS method was successfully implemented to quantify LDD-2614 in Sprague Dawley rat plasma to perform a pharmacokinetic study on LDD-2614 in rats after oral and intravenous administration.
Male Sprague Dawley rats (7–8 weeks, 230–250 g) were supplied from Samtaco (Osan, Korea) and were housed in cages before the experiments. All animal experiments were approved by the Dankook University’s Institutional Animal Care and Use Committee (approval no. DKU-19-029). All rats were kept in a light-controlled room maintained at a temperature of 23 ± 2 °C with 12 h light and dark cycles and a relative humidity of 50% ± 10%. The rats were given ad libitum access to standard food and water and acclimated to the environment for 7 days prior to the experiment.
The rats were fasted for at least 12 h prior to the start of the experiments and freely supplied water. On the morning of the test, the rats were anaesthetized with a mixture of alfaxan and rompun (75:25, v/v). For oral administration studies, the carotid artery was cannulated using a polyethylene tube (PE 60, 0.76 mm i.d., 1.22 mm o.d., Becton Dickinson, Franklin Lakes, NJ, USA) for efficient blood sampling. For intravenous administration studies, the carotid artery and jugular veins were cannulated for blood sampling and drug administration, respectively. Each cannula was exteriorized to the dorsal side of the neck. Then, each rat was individually housed in a rat metabolism cage and allowed to move freely. A recovery time of 3–4 h from anesthesia was allowed before drug administration. The rats were randomly divided into six groups as follows: the first three groups were orally administered LDD-2614 (4 mL/kg dissolved in distilled water) using a gastric gavage tube at doses of 1, 5, and 20 mg/kg, and the remaining three groups were intravenously injected over 1 min with LDD-2614 (4 mL/kg dissolved in distilled water) at doses of 1, 5, and 20 mg/kg. Samples of approximately 0.2 mL of blood were immediately collected via the carotid artery at 0 (before administration), 5, 15, 30, 60, 90, 120, 180, 240, 360, 480, and 1440 min after oral and intravenous administration. For intravenous administration, a sampling time of 1 min after administration was also added, and the remaining times were the same. The blood samples were immediately centrifuged at 12,000 rpm for 5 min. Each plasma sample was transferred into a new microtube and stored at −80 °C until used for LC–MS/MS analysis.
All data are expressed as mean ± standard deviation. The pharmacokinetic parameters were calculated using Phoenix WinNonlin 2.1 (Pharmasight, Mountain View, CA, USA). A noncompartmental model was used.

[2] = Stability of LDD-2614 in rat plasma (freeze-thaw, long-term, short-term, autosampler); assay type: in vitro ADME; conditions: for Measured Concentration: n = 5
Protocol: Stability studies using three QC samples for freeze-thaw stability (three freeze-thaw cycles lasting 12 h each), long-term stability (sample stored at −80 °C and analyzed after 2 weeks), short-term temperature stability (samples kept at room temperature for 6 h), and post-preparation stability (12 h in autosampler) were evaluated. The measurements of the analytes were compared with those from newly prepared QC samples at the same concentrations. The accuracy (RE) of all analytes ranged from −0.6% to 8.6% for the three freeze-thaw cycles, −5.5% to −2.6% for long-term stability, −3.6% to −0.1% for short-term stability, and −1.5% to 1.5% for post-preparation stability.
Stability was evaluated with rat plasma at the four QC concentrations. Three freeze (−80 °C) and thaw (room temperature, 25 °C and stand for 2 h) cycles, long-term stability (−80 °C for 2 weeks), short-term stability (room temperature for 6 h), and post-extraction stability (12 h in the autosampler at 4 °C) were tested. The concentrations of the prepared stability samples were compared to the QC samples prepared on the day of analysis. The stability samples were considered stable if recovered within 15% compared to the QC sample concentration.

FLT3 = system: FLT3; parameters: method as in PMID 32272419; conditions: in vitro assays, previous studies; cited from earlier work
MV4-11 cells = system: MV4-11 cells; parameters: method as in PMID 32272419; conditions: AML line of MV4-11 cells, previous studies; cited from earlier work
MV4-11 xenograft = system: MV4-11 xenograft; parameters: method as in PMID 32272419; conditions: MV4-11 xenograft animal model, previous studies; cited from earlier work
[3] = extracted rat plasma, autosampler 4 °C 12 h, nominal 0.3 ng/mL
[4] = extracted rat plasma, autosampler 4 °C 12 h, nominal 150 ng/mL
[5] = extracted rat plasma, autosampler 4 °C 12 h, nominal 400 ng/mL
[6] = rat plasma, long-term −80 °C 2 weeks, nominal 0.3 ng/mL
[7] = rat plasma, long-term −80 °C 2 weeks, nominal 150 ng/mL
[8] = rat plasma, long-term −80 °C 2 weeks, nominal 400 ng/mL
[9] = rat plasma, short-term room temp 6 h, nominal 0.3 ng/mL
[10] = rat plasma, short-term room temp 6 h, nominal 150 ng/mL
[11] = rat plasma, short-term room temp 6 h, nominal 400 ng/mL
[12] = rat plasma, three freeze-thaw cycles, nominal 0.3 ng/mL
[13] = rat plasma, three freeze-thaw cycles, nominal 150 ng/mL
[14] = rat plasma, three freeze-thaw cycles, nominal 400 ng/mL

For `O=C1Nc2ccc(F)cc2C1=C1Nc2ccc(F)cc2C1=NOCCN1CCNCC1` [LDD-2614], the AUC(0-t) ([1]; intravenous, 1 mg/kg, n = 7, mean ± SD) was 635 ng·h/mL, the clearance ([1]; intravenous, 1 mg/kg) was 30.7 ± 13.6 mL/min/kg and the MRT ([1]; intravenous, 1 mg/kg) was 4.53 h. The half-life ([1]; intravenous, 1 mg/kg, read-out: T1/2 (terminal half-life)) was 4.91 ± 0.542 h, the Vd ([1]; intravenous, 1 mg/kg) was 9.62 ± 3.38 L/kg and the AUC(0-t) ([1]; intravenous, 5 mg/kg, n = 5, mean ± SD) was 3510 ng·h/mL. For the same compound, the clearance ([1]; intravenous, 5 mg/kg) was 20.8 ± 8.4 mL/min/kg, the MRT ([1]; intravenous, 5 mg/kg) was 4.76 h and the half-life ([1]; intravenous, 5 mg/kg, read-out: T1/2 (terminal half-life)) was 3.31 ± 0.575 h. For the same compound, the Vd ([1]; intravenous, 5 mg/kg) was 6.42 ± 2.44 L/kg, the AUC(0-t) ([1]; intravenous, 20 mg/kg, n = 6, mean ± SD) was 14400 ng·h/mL and the clearance ([1]; intravenous, 20 mg/kg) was 23.2 ± 3.7 mL/min/kg. For the same compound, the MRT ([1]; intravenous, 20 mg/kg) was 5.88 h, the half-life ([1]; intravenous, 20 mg/kg, read-out: T1/2 (terminal half-life)) was 3.38 ± 0.778 h and the Vd ([1]; intravenous, 20 mg/kg) was 8.67 ± 2.08 L/kg. For the same compound, the half-life ([1]; intravenous, dose range 1–20 mg/kg, terminal phase, read-out: half-life (T1/2)) was 3 to 4 h, the AUC(0-t) ([1]; oral, 1 mg/kg, n = 6, mean ± SD) was 73.8 ng·h/mL and the Cmax ([1]; oral, 1 mg/kg) was 5.96 ± 1.77 ng/mL. For the same compound, the bioavailability ([1]; oral, 1 mg/kg, read-out: F (bioavailability)) was 11.7%, the AUC(0-t) ([1]; oral, 5 mg/kg, n = 6, mean ± SD) was 390 ng·h/mL and the Cmax ([1]; oral, 5 mg/kg) was 43.7 ± 8.2 ng/mL. It also gave a bioavailability ([1]; oral, 5 mg/kg, read-out: F (bioavailability)) of 11.1%, an AUC(0-t) ([1]; oral, 20 mg/kg, n = 5, mean ± SD) of 1020 ng·h/mL and a Cmax ([1]; oral, 20 mg/kg) of 120 ± 33.4 ng/mL. The bioavailability ([1]; oral, 20 mg/kg, read-out: F (bioavailability)) was 7.1%, the bioavailability ([1]; oral, doses 1–20 mg/kg, compared with intravenous AUClast, read-out: bioavailability after oral administration) was 7.1 to 11.7% and the AUC/Dose ([1]; intravenous, 1 mg/kg) was 38.1 ± 18.5. The AUC/Dose ([1]; intravenous, 5 mg/kg) was 42.1 ± 12.9, the AUC/Dose ([1]; intravenous, 20 mg/kg) was 43.2 ± 7.5 and the “dose linearity of pharmacokinetics” value ([1]; intravenous, dose range 1–20 mg/kg) was “linear pharmacokinetic characteristics were observed”. The AUC/Dose ([1]; oral, 1 mg/kg) was 4.43 ± 0.39, the AUC/Dose ([1]; oral, 5 mg/kg) was 4.69 ± 3.05 and the AUC/Dose ([1]; oral, 20 mg/kg) was 3.05 ± 1.24. For the same compound, the “increase in AUC” value ([1]; oral, 20 mg/kg versus 5 mg/kg (four-fold increase in dose)) was “approximately 2.5 fold”, the “Accuracy (RE)” value [2, 3] was −1.1% and the “Measured Concentration” value [2, 3] was 0.30 ± 0.03 ng/mL. For the same compound, the “Accuracy (RE)” value [2, 4] was −1.5%, the “Measured Concentration” value [2, 4] was 147.8 ± 2.98 ng/mL and the “Accuracy (RE)” value [2, 5] was 1.5%. The “Measured Concentration” value [2, 5] was 410.2 ± 24.3 ng/mL, the “degradation under the different storage and analysis conditions” value ([2]; rat plasma, freeze-thaw, long-term, short-term, post-preparation) was “no significant degradation observed” and the “Accuracy (RE)” value [2, 6] was −4.8%. The “Measured Concentration” value [2, 6] was 0.29 ± 0.02 ng/mL, the “Accuracy (RE)” value [2, 7] was −2.6% and the “Measured Concentration” value [2, 7] was 146.1 ± 0.65 ng/mL. The “Accuracy (RE)” value [2, 8] was “–5.5%”, the “Measured Concentration” value [2, 8] was 378.1 ± 17.7 ng/mL and the “Accuracy (RE)” value [2, 9] was −0.1%. For the same compound, the “Measured Concentration” value [2, 9] was 0.30 ± 0.03 ng/mL, the “Accuracy (RE)” value [2, 10] was −3.6% and the “Measured Concentration” value [2, 10] was 144.6 ± 6.46 ng/mL. For the same compound, the “Accuracy (RE)” value [2, 11] was −1.2%, the “Measured Concentration” value [2, 11] was 395.1 ± 13.0 ng/mL and the “Accuracy (RE)” value [2, 12] was 8.6%. For the same compound, the “Measured Concentration” value [2, 12] was 0.33 ± 0.02 ng/mL, the “Accuracy (RE)” value [2, 13] was −0.6% and the “Measured Concentration” value [2, 13] was 149.1 ± 1.31 ng/mL. For the same compound, the “Accuracy (RE)” value [2, 14] was −0.3%, the “Measured Concentration” value [2, 14] was 398.9 ± 6.04 ng/mL and the FLT3 inhibition (FLT3) was “FLT3 inhibition”. The anti-proliferative activity (MV4-11 cells) was “anti-proliferative activity” and the “in vivo antitumor activity” value (MV4-11 xenograft) was “significant in vivo antitumor activity”.
